Test system: murine fibroblasts BALB3T3
Assay: MTT with induced oxidative stress-BALB3T3
Type: cell-based
Details: 25 μM; oxidative stress induced with H2O2
Procedure: (§1) Non-treated cells in DMEM medium (Dulbecco's Modified Eagle's Medium, ATCC, Manassas, Va., USA) added to 2.5% fetal bovine serum (FCS), 1% non-essential amino acids (NEAA), a 1% penicillin and streptomycin mixture (Pen-Strep Mix), and maintained in 25 cm^2 (96 well) culture plates at 37° C. and under 5% CO2.
as §1, with “Cells treated for 2 hrs with 1 mM hydrogen peroxide” for “Non-treated cells”, “CO2 (in the dark). […]” for “CO2.”
Studies conducted in 2005 by Rajapakse and colleagues (2005) have highlighted the possibility of employing a widely used and versatile method such that of the MTT essay for studying the in vitro anti-oxidant activity of active compounds. […] The possible protecting effects may be determined by the assessment of the post-oxidative stress cell viability of cells pre-treated/pre-exposed to the active compounds to be tested, in comparison to cells subjected to the same oxidative stress. […]
The data were expressed as the percentage of cell viability as compared to the non-stressed control cells (ctr), according to the following formula: cell viability/ctr=(Abs sample/Abs ctr)*100 […]

## Cc1c(C)c2c(c(C)c1O)CC[C@@](C)(CCC[C@H](C)CCC[C@H](C)CCCC(C)C)O2 [α-tocopherol]
  Scavenger activity: 43.10

Source: patent US9498429B2, “Use of a vegetal extract for the prevention and treatment of hair loss” (GIULIANI S.P.A., priority 2013, dated 2016)
